Among the data in ChEMBL document CHEMBL5126678, “A New Naphthopyran Derivative Combines c-Myb Inhibition, Microtubule-Targeting Effects, and Antiangiogenic Properties” (ACS Med Chem Lett, 2022) are Activity and IC50 values, retold here.

SMILES strings stand for the structures.

Test system in the first data set: not listed separately
Briefly: Effect on angiogenic activity in 24 hrs post-fertilized fil1/EGFP transgenic zebrafish embryo assessed as subintestinal vessel area at 100 nM measured after 48 hrs by fluorescence microscopy (reference value: 100%). Format: toxicity, Danio rerio. Particulars: 0.1 µM.
Regarding `CNC(=O)c1ccccc1Sc1ccc2c(/C=C/c3ccccn3)n[nH]c2c1` [AXITINIB], the Activity is recorded as 19.6%.

For another data set, the target named is Transcriptional activator Myb (Homo sapiens, UniProt P10242). Kind of data set: Inhibition of c-Myb (unknown origin) expressed in HEK293T cells measured after 16 hrs by steady-glo luciferase reporter gene assay. It is filed as cell-based.
Sequence of Transcriptional activator Myb (P10242 whole entry): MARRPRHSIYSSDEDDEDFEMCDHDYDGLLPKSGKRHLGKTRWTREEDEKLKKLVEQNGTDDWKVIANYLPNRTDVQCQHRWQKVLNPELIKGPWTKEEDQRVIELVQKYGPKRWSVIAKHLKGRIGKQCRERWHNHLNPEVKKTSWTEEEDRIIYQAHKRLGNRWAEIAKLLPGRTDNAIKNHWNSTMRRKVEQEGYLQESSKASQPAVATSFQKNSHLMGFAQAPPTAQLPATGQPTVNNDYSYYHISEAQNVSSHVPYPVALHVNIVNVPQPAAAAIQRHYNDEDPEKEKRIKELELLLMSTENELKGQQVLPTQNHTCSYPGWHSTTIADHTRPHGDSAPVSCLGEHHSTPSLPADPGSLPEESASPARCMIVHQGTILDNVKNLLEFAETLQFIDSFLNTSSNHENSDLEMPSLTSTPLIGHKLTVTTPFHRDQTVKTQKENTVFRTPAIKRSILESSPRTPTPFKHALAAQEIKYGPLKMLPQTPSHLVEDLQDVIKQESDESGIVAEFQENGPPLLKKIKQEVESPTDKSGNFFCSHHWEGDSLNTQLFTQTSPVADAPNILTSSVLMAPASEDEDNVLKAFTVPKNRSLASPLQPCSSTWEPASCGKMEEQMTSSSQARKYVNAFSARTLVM
Conditions: not given
As for `CSc1ccc(C2C(C#N)=C(N)Oc3c2ccc2ccccc32)cc1F` (centres undefined), half-maximal inhibition (IC50) was put at 240 nM. Same read-out and setting: the figure for `COc1ccc(C2C(C#N)=C(N)Oc3c2ccc2ccccc32)cc1[N+](=O)[O-]` (centres undefined) is 110 nM; for `N#CC1=C(N)Oc2c(ccc3ccccc23)C1c1cc(F)c(F)c(F)c1` (centres undefined) it is 70 nM; for `N#CC1=C(N)Oc2c(ccc3ccccc23)C1c1ccc(C#N)cc1` (centres undefined) it is 390 nM. In the case of `CSc1ccc(C2C(C#N)=C(N)Oc3c2ccc2ccccc32)cc1` (centres undefined), the IC50 (in general, the concentration at which inhibition is half-maximal) is 210 nM. As to `N#CC1=C(N)Oc2c(ccc3ccccc23)C1c1ccc(S(F)(F)(F)(F)F)cc1` (centres undefined), 3200 nM corresponded to half-maximal inhibition (IC50). On the same count and under the same terms, the figure for `CCOc1c(I)cc(C2C(C#N)=C(N)Oc3c2ccc2ccccc32)cc1OC` (centres undefined) is 50 nM. The same measure, in the same setting: the figure for `COc1ccc(C2C(C#N)=C(N)Oc3c2ccc2ccccc32)cc1OC` (centres undefined) is 40 nM. In the case of `CCCCCOc1c(OC)cc(C2C(C#N)=C(N)Oc3c2ccc2ccccc32)cc1OC` (centres undefined), the IC50 turned out to be 400 nM. `COc1cc(C2C(C#N)=C(N)Oc3c2ccc2ccccc32)ccc1OCc1ccccc1` (centres undefined) yielded an IC50 of 1000 nM. `COc1ccc(C2C(C#N)=C(N)Oc3c2ccc2ccccc32)cc1` (centres undefined): the IC50 is 3700 nM. For the compound `Cc1ccc(C2C(C#N)=C(N)Oc3c2ccc2ccccc32)cc1` (centres undefined), half-maximal inhibition (IC50) was put at 430 nM. Turning to `CCOc1c(Br)cc(C2C(C#N)=C(N)Oc3c2ccc2ccccc32)cc1OC` (centres undefined), the IC50 came to 36.8 nM. `COc1cc(C2C(C#N)=C(N)Oc3c2ccc2ccccc32)c(Br)c(OC)c1OC` (centres undefined): inhibition was half-maximal at 130 nM (IC50). Still for that read-out and setting: the figure for `N#CC1=C(N)Oc2c(ccc3ccccc23)C1c1ccc(Cl)c(F)c1` (centres undefined) is 16 nM; for `N#CC1=C(N)Oc2c(ccc3ccccc23)C1c1cccc(S(F)(F)(F)(F)F)c1` (centres undefined) it is 130 nM.

Compound `COc1ccc(C2C(C#N)=C(N)Oc3c2ccc2ccccc32)cc1C` (centres undefined) came in with an IC50 of 400 nM.

For `COc1ccc(C2C(C#N)=C(N)Oc3c2ccc2ccccc32)cc1Br` (centres undefined), the midpoint of inhibition, the IC50, lay at 420 nM.
